From patent US9402842B2, “Synthesis and use of dual tyrosyl-DNA phosphodiesterase I (Tdp1)—topoisomerase I (Top1) inhibitors” (Purdue Research Foundation, priority 2012, dated 2016) come the findings set out here.

Where a name gives a salt, the structure may show the parent alone. Read-outs that look alike come from different tables or passages of the source.

One series concerns the target human recombinant Top1 (Homo sapiens (Human), UniProt P11387). Description: Topoisomerase I-mediated DNA cleavage reactions. More on the design: Top1 inhibition (text of part A): key to the marks not given beside the values. Conditions: for Top1, compound-induced DNA cleavage due to Top1 inhibition: semiquantitative scale relative to 1 μM camptothecin (90) or MJ-III-65 (91).

In series [1] the test system is all human cancer cell lines successfully tested. Description: NCI screen, mean graph midpoint (MGM) for growth inhibition. Type of series: cell-based. Particulars: for GI50: read-out: MGM GI50.
The target of another series is recombinant human Tdp1 (Homo sapiens (Human), UniProt Q9NUW8). Description: Gel-based assay measuring the inhibition of recombinant Tdp1. Type of series: biochemical. Particulars: for IC50: read-out: Tdp1 (semiquantitative IC50 scale).
Another series deals with HOP-62. Description: NCI screen cytotoxicity, lung HOP-62. Particulars: read-out: Cytotoxicity (GI50 in μM) lung HOP-62; 50% growth inhibition.
In a further series the test system is HCT-116. Description: NCI screen cytotoxicity, colon HCT-116. Particulars: read-out: Cytotoxicity (GI50 in μM) colon HCT-116; 50% growth inhibition.
The test system of another series is SN12C. Description: NCI screen cytotoxicity, renal SN12C. Conditions: read-out: Cytotoxicity (GI50 in μM) renal SN12C; 50% growth inhibition.
The test system of the next series is UACC-62. Description: NCI screen cytotoxicity, melanoma UACC-62. Conditions: read-out: Cytotoxicity (GI50 in μM) melanoma UACC-62; 50% growth inhibition.
For a further series, the system named is DU-145. Description: NCI screen cytotoxicity, prostate DU-145. Conditions: read-out: Cytotoxicity (GI50 in μM) prostate DU-145; 50% growth inhibition.
Another series deals with OVCAR-3. Description: NCI screen cytotoxicity, ovarian OVCAR-3. Particulars: read-out: Cytotoxicity (GI50 in μM) ovarian OVCAR-3; 50% growth inhibition.
For the next series, the system named is SF-539. Description: NCI screen cytotoxicity, CNS SF-539. Conditions: read-out: Cytotoxicity (GI50 in μM) CNS SF-539; 50% growth inhibition.
Another series concerns MDA-MB-435. Description: NCI screen cytotoxicity, breast MDA-MB-435. Particulars: read-out: Cytotoxicity (GI50 in μM) breast MDA-MB-435; 50% growth inhibition.
Series [2] deals with single-stranded DNA substrate. Description: Surface plasmon resonance, binding to single-stranded DNA substrate. Conditions: SPR.
Setting [3] is: Homo sapiens, read-out: MGM (μM).
Where [4] appears, read: mean graph midpoint for growth inhibition of all human cancer cell lines successfully tested, read-out: MGM.

Chain of human recombinant Top1 (P11387 whole entry): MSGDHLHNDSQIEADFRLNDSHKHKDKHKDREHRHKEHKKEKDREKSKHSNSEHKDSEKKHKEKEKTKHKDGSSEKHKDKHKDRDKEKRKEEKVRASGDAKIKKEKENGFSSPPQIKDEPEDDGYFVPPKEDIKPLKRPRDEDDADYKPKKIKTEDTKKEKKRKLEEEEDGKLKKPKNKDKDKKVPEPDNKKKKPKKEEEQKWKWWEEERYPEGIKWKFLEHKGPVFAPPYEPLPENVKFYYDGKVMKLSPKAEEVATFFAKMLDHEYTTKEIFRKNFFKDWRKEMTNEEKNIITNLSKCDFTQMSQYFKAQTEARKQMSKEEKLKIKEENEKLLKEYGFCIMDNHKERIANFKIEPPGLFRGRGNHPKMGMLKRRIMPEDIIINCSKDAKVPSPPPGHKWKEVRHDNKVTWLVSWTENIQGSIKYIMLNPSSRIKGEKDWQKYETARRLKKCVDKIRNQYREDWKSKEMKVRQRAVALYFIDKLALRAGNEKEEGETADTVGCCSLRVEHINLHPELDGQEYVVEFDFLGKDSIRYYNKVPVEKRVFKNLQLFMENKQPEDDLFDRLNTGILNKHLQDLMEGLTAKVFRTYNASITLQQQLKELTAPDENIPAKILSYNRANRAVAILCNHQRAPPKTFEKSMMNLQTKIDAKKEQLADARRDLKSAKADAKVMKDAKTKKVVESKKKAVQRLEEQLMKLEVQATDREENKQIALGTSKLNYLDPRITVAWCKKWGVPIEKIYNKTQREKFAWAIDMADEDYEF
Chain of recombinant human Tdp1 (Q9NUW8 whole entry): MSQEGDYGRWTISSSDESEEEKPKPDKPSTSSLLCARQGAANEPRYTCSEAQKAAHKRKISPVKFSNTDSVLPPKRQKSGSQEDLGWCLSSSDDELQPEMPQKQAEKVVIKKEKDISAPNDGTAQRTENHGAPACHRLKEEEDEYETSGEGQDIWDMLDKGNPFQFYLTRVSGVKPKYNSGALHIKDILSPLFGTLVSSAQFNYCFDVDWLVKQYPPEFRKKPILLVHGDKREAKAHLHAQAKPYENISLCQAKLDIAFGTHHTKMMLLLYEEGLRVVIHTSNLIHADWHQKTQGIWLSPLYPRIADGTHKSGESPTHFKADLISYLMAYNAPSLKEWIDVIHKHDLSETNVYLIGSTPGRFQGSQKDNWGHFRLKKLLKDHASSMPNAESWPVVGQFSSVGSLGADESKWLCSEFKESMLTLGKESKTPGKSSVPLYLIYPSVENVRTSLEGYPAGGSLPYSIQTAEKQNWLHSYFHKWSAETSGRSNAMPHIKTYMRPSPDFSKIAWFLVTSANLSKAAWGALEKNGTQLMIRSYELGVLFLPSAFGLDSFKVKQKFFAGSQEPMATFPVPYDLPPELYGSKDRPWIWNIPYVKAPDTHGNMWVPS
Method for human recombinant Top1: Topoisomerase I-Mediated DNA Cleavage Reactions.
DNA cleavage reactions were prepared as previously reported with the exception of the DNA substrate. […] Unincorporated [^32P]dGTP was removed using mini Quick Spin DNA columns (Roche, Indianapolis, Ind.), and the eluate containing the 3′-end-labeled DNA substrate was collected. Approximately 2 nM radiolabeled DNA substrate was incubated with recombinant Top1 in 20 μL of reaction buffer [10 mM Tris-HCl (pH 7.5), 50 mM KCl, 5 mM MgCl2, 0.1 mM EDTA, and 15 μg/mL BSA] at 25° C. for 20 min in the presence of various concentrations of compounds. The reactions were terminated by adding SDS (0.5% final concentration) followed by the addition of two volumes of loading dye (80% formamide, 10 mM sodium hydroxide, 1 mM sodium EDTA, 0.1% xylene cyanol, and 0.1% bromphenol blue). Aliquots of each reaction mixture were subjected to 20% denaturing PAGE. Gels were dried and visualized by using a phosphoimager and ImageQuant software (Molecular Dynamics).
Top1 reactions were performed as recently described. […] The reactions were terminated by adding SDS (0.5% final concentration) followed by the addition of two volumes of loading dye (80% formamide, 10 mM sodium hydroxide, 1 mM sodium EDTA, 0.1% xylene cyanol, and 0.1% bromphenol blue). Reactions were subjected to 20% denaturing PAGE. Gels were dried and visualized by using a Typhoon 8600 and ImageQuant software (Molecular Dynamics).
Method for recombinant human Tdp1: Tdp1 inhibitory activity was measured by the drug's ability to inhibit the hydrolysis of the phosphodiester linkage between tyrosine and the 3′-end of the DNA substrate, and to prevent the generation of an oligonucleotide with a free 3′-phosphate (N14P). Therefore, the disappearance of the gel band for N14P indicated Tdp1 inhibition.
Gel-based Assay Measuring the Inhibition of Recombinant Tdp1.
A 5′-[^32P]-labeled single-stranded DNA oligonucleotide containing a 3′-phosphotyrosine (N14Y) was generated as described by Dexheimer et al. The DNA substrate was then incubated with 5 pM recombinant Tdp1 in the absence or presence of inhibitor for 15 min at room temperature in a buffer containing 50 mM Tris HCl, pH 7.5, 80 mM KCl, 2 mM EDTA, 1 mM DTT, 40 μg/ml BSA and 0.01% Tween-20. […] Gel images were scanned using a Typhoon 8600 (GE Healthcare) and densitometric analyses were performed using the ImageQuant software (GE Healthcare).

`COC(=O)C(=O)Nc1ccc2c3c(n(CCCN)c(=O)c2c1)-c1ccccc1C3=O` [Compound 22 of (B), Methyl 2-[(6-(3-Aminopropyl)-5,11-dioxo-6,11-dihydro-5H-indeno[1,2-c]isoquinolin-3-yl)amino]-2-oxoacetate]: the “Top1, compound-induced DNA cleavage due to Top1 inhibition” value (shortened to “Top1 … to Top1 inhibition”) at human recombinant Top1 came to 0. For the same molecule, the IC50 in series [1] (setting [3]) is 1.86 ± 0.38 µM.

Turning to `COC(=O)CC(=O)Nc1ccc2c3c(n(CCCN)c(=O)c2c1)-c1ccccc1C3=O` [Compound 23 of (B), Methyl 3-[(6-(3-Aminopropyl)-5,11-dioxo-6,11-dihydro-5H-indeno[1,2-c]isoquinolin-3-yl)amino]-3-oxopropanoate], the IC50 in series [1] (setting [3]) is 1.86 µM.

Take `COC(=O)CCCC(=O)Nc1ccc2c3c(n(CCCN)c(=O)c2c1)-c1ccccc1C3=O` [Compound 25 of (B), Methyl 5-[(6-(3-Aminopropyl)-5,11-dioxo-6,11-dihydro-5H-indeno[1,2-c]isoquinolin-3-yl)amino]-5-oxopentanoate]: at human recombinant Top1, the “Top1 … to Top1 inhibition” value is given as 0. For the same molecule, the values for the IC50 (in [1] (setting [3]); on recombinant human Tdp1 (determined by duplicate)) were 1.09 µM and 37000 to 111000 nM, respectively.

As to `COC(=O)CCCCC(=O)Nc1ccc2c3c(n(CCCN)c(=O)c2c1)-c1ccccc1C3=O` [Compound 26 of (B), Methyl 6-[(6-(3-Aminopropyl)-5,11-dioxo-6,11-dihydro-5H-indeno[1,2-c]isoquinolin-3-yl)amino]-6-oxohexanoate], the “Top1 … to Top1 inhibition” value on human recombinant Top1 is reported as “(+)”. The results for the IC50 (in series [1] (setting [3]); at recombinant human Tdp1 (determined by duplicate)) were 2.34 µM and 37000 to 111000 nM, respectively.

For `CCOC(=O)CNc1ccc2c3c(n(CCCN)c(=O)c2c1)-c1ccccc1C3=O` [Compound 40 of (B), Ethyl 2-[(6-(3-Aminopropyl)-5,11-dioxo-6,11-dihydro-5H-indeno[1,2-c]isoquinolin-3-yl)amino]acetate Hydrochloride], the concentration for 50% growth inhibition (GI50) was 0.93 µM in the series with HOP-62; 0.44 µM in the series with HCT-116; 1.75 µM in the series with SN12C; 2.25 µM in the series with UACC-62; 1.68 µM in the series with DU-145; 3.12 µM with OVCAR-3. In addition, the GI50 in the series with SF-539 came out at 8.91 µM; in the series with MDA-MB-435 it was 3.05 µM. Further, the IC50 in series [1] (setting [3]) was determined as 1.69 µM.

As to `Cl.NCCCn1c2c(c3ccc(NCC(=O)O)cc3c1=O)C(=O)c1ccccc1-2` [Compound 43 of (B), 2-((6-(3-Aminopropyl)-5,11-dioxo-6,11-dihydro-5H-indeno[1,2-c]isoquinolin-3-yl)amino)acetic Acid Hydrochloride], at human recombinant Top1, the “Top1 … to Top1 inhibition” value is reported as 0. Besides, the concentration for 50% growth inhibition (GI50) with HOP-62 worked out at 0.65 µM; in the series on HCT-116 it was 0.33 µM; with SN12C, 0.49 µM; in the series with UACC-62 it was 0.72 µM; in the series on DU-145, 1.51 µM; with OVCAR-3 it was 1.6 µM. For the same molecule, the GI50 in the series with SF-539 was 1.79 µM; in the series with MDA-MB-435 it was 1.14 µM. Also, the IC50 in series [1] (setting [3]) was 0.87 ± 0.014 µM; at recombinant human Tdp1 (determined by duplicate) it was 1000 to 12000 nM.

`COc1ccc2c(c1)-c1c(c3ccc([N+](=O)[O-])cc3c(=O)n1CCCN)C2=O.Cl` [Compound 51 of (B), 6-(3-Aminopropyl)-5,6-dihydro-8-methoxy-3-nitro-5,11-dioxo-11H-indeno[1,2-c]isoquinoline Hydrochloride]: the “Top1 … to Top1 inhibition” value at human recombinant Top1 is given as “++”. Further, the 50% growth inhibitory concentration (GI50) with HCT-116 is 0.06 µM; with SN12C, 0.15 µM; in the series on DU-145, 0.18 µM; with OVCAR-3 it was 0.54 µM; in the series with SF-539, 0.61 µM; in the series on MDA-MB-435, 0.58 µM. Moreover, the IC50 in series [1] (setting [3]) was 0.17 ± 0.017 µM; at recombinant human Tdp1 it was 12000 to 37000 nM.

Consider `COc1ccc2c(c1)-c1c(c3ccc([N+](=O)[O-])cc3c(=O)n1CCCn1ccnc1)C2=O` [Compound 52 of (B), 6-(3-(1H-Imidazol-1-yl)propyl)-8-methoxy-3-nitro-5H-indeno[1,2-c]isoquinoline-5,11(6H)-dione], for which, on human recombinant Top1 (high concentration of 100 μM), the “suppression of Top1-mediated DNA cleavage at high drug concentration” value is listed as “slight suppression”. Further, the “Top1 … to Top1 inhibition” value at human recombinant Top1 was “+++”. For the same molecule, the concentration for 50% growth inhibition (GI50) is less than 0.01 µM with HOP-62; less than 0.01 µM in the series on HCT-116; less than 0.01 µM with SN12C; less than 0.01 µM in the series with UACC-62; less than 0.01 µM with DU-145; 0.03 µM in the series with OVCAR-3. The 50% growth inhibitory concentration (GI50) with MDA-MB-435 is 0.03 µM. The IC50 in series [1] (setting [4]) worked out at 0.02 ± 0.0006 µM. The “Tdp1 (semiquantitative IC50 scale)” value at recombinant human Tdp1 was “(+)”.

In the case of `COc1ccc2c(c1)C(=O)c1c-2n(CCCN)c(=O)c2cc([N+](=O)[O-])ccc12` [Compound 54 of (B)], the GI50 with HOP-62, in the series with HCT-116, with SN12C and in the series on UACC-62 was less than 0.01 µM each time. In [1] (setting [3]), the IC50 turned out to be 0.02 ± 0.0008 µM.

`NCCCn1c2c(c3ccc(N)cc3c1=O)C(=O)c1ccccc1-2` [Compound 62 of (B)]: the GI50 is 0.27 µM in the series on HOP-62; 0.18 µM with HCT-116; 0.23 µM in the series with SN12C; 0.3 µM with UACC-62; 0.12 µM with DU-145; 0.13 µM in the series on OVCAR-3. Moreover, the GI50 in the series with SF-539 is 0.34 µM; in the series on MDA-MB-435 it was 0.23 µM. The IC50 in series [1] (setting [3]) worked out at 0.16 µM.

On to `O=C1c2ccccc2-c2c1c1ccc([N+](=O)[O-])cc1c(=O)n2CCCO` [Compound 63 of (B)], for which the GI50 is 0.19 µM in the series with HCT-116; 0.47 µM in the series with SN12C; 0.31 µM in the series on UACC-62; 0.43 µM with DU-145; 0.87 µM with OVCAR-3; 1.97 µM in the series with MDA-MB-435. For the same molecule, the IC50 in series [1] (setting [3]) turned out to be 0.89 ± 0.22 µM.

As for `COc1ccc2c(c1)C(=O)c1c-2n(CCCN)c(=O)c2cc(N)ccc12` [Compound 89 of (B), 3-Amino-6-(3-aminopropyl)-5,6-dihydro-9-methoxy-5,11-dioxo-11H-indeno[1,2-c]isoquinoline Dihydrochloride], the IC50 was 0.04 µM in series [1] (setting [3]) and 1000 to 12000 nM on recombinant human Tdp1 (determined by duplicate).

As for `CS(=O)(=O)NCCCCCCCCCCCn1c2c(c3ccccc3c1=O)C(=O)c1ccccc1-2` [Compound 89, N-(11-(5,11-Dioxo-5H-indeno[1,2-c]isoquinolin-6(11H)-yl)undecyl)-methanesulfonamide], the “Top1 … to Top1 inhibition” value on human recombinant Top1 was “++”. Also, the GI50 in series [1] (Homo sapiens) came to 40 nM.

Take `O=C(O)C(F)(F)F.O=C(O)C(F)(F)F.O=C1c2ccccc2-c2c1c1ccccc1c(=O)n2CCCNCCCNCCCn1c2c(c3ccccc3c1=O)C(=O)c1ccccc1-2` [Compound 145, Bis-1,3-{(5,6-dihydro-5,11-diketo-11H-indeno[1,2-c]isoquinoline)-6-propyl-amino}propane Bis(trifluoroacetate)]: the “Top1 inhibition (text of part A)” value at human recombinant Top1 (semiquantitative scale relative to 1 μM camptothecin) is “++++”. In [1] (mean graph midpoint, NCI cancer cell line screen), the GI50 stood at 394 nM.

Turning to “(6-Methyl-5,11-dioxo-6,11-dihydro-5H-indeno[1,2-c]isoquinolin-3-yl)-carbamic Acid [Compound 14 of (B)]”, the “Top1 … to Top1 inhibition” value on human recombinant Top1 is given as “++”. Moreover, the “binding to the single-stranded DNA substrate” value in series [2] is recorded as “did not bind”.

For “N-(6-(5,11-Dioxo-5H-indeno[1,2-c]isoquinolin-6(11H)hexyl)-methanesulfonamide [Compound 84]”, the “Top1 inhibition (in words)” value on human recombinant Top1 was “active”. Further, the IC50 in series [1] (setting [4]) was 0.25 ± 0.004 µM.
